# Biological target: T1, human Oxytocin (OTR) receptor (Homo sapiens, UniProt P30559)
# T1 construct: expressed in transfected cells
# T1 sequence (P30559 1-389): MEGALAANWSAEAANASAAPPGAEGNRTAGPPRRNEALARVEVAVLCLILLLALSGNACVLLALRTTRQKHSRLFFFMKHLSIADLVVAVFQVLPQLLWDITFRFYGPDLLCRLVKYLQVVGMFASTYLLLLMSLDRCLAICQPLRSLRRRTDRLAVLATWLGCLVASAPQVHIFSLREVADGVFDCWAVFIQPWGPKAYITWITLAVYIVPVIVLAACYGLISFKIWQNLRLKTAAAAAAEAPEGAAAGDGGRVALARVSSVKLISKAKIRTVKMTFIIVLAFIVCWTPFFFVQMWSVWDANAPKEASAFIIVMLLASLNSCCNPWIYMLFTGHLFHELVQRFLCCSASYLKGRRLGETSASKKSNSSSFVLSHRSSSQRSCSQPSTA
# Experiment: Calcium flux assay (FLIPR), agonist mode, CHO cells expressing human OTR
# Assay type: cell-based
# Settings: calcium flux in CHO cells expressing human OTR, read-out: hEC50
# From the text: Chinese Hamster Ovary (CHO) cells were transfected with expression plasmids encoding either the human V1a, the human Oxytocin (OTR) or the humanV2 receptor, the latter in combination with the chimeric Gqs5 G protein to redirect the signal to Calcium flux. Stable cells were cloned by limiting dilution to yield monoclonal cell lines expressing either human V1a, human V2+Gqs5 or human OTR receptors and selected based on functional responses detected on a fluorometric imaging plate reader (FLIPR) detecting Calcium flux in the cell after receptor activation. The stable cell lines were grown in F-12 K Nutrient Mixture (Kaighns Modification), containing 10% foetal bovine serum (FBS), 1% penicillin-streptomycin, 1% L-[…], 200 ug/ml Geneticin at 37° C. in a 10% CO2 incubator at 95% humidity.
# Calcium Flux Assays Using Fluorescent Imaging (Fluorometric Imaging Plate Reader, FLIPR)
# On the afternoon before the assay, cells were plated at a density of 50,000 cells/well into black 96 well plates with clear bottoms to allow cell inspection and fluorescence measurements from the bottom of each well. The density of cells was sufficient to yield a confluent monolayer the next day. Hanks balanced salt solution, without phenol red, containing 20 mM HEPES (pH 7.3) and 2.5 mM probenecid (assay buffer) was prepared fresh for each experiment. Compound dilutions were made using a Beckman Biomek 2000 laboratory automation workstation, in assay buffer containing 1% DMSO. The dye-loading buffer consisted of a final concentration of 2 μM Fluo-4-AM (dissolved in DMSO and pluronic acid) in assay buffer. The existing culture media was removed from the wells and 100 μl of the dye-loading buffer was added to each well and incubated for approximately 60 min at 37° C. in a 5% CO2 incubator at 95% humidity. Once dye-loaded, the cells were washed thoroughly on an Embla cell washer with the assay buffer to remove any unincorporated dye. Exactly 100 μl assay buffer was left in each well.
# Each 96 well plate containing dye-loaded cells was placed into the FLIPR machine and the laser intensity set to a suitable level to detect low basal fluorescence. To test compounds as agonists, 25 μl diluted compound was added to the plate 10 seconds into the fluorescent measurements and fluorescent response was recorded for 5 minutes. The fluorescence data was normalized to the endogenous full agonist dose-response set at 100% for the maximum response and 0% for the minimum. Each agonist concentration-response curve was constructed using a four parameter logistic equation with Microsoft Excel XLFit as follows: Y=Minimum+((Maximum−Minimum)/(1+10^(LogEC50-X)nH)), where y is the % normalized fluorescence, minimum is the minimum y, maximum is the maximum y, log EC50 is the log10 concentration which produces 50% of the maximum induced fluorescence, x is the log10 of the concentration of the agonist compound and H is the slope of the curve (the Hill Coefficient). The maximum value gives the efficacy of the agonist test compound in percentage. The concentration of agonist that produced a half-maximal response is represented by the EC50 value, the logarithm of which yielded the pEC50 value.
row,EC50 [nM],Structure (SMILES)
1,63,"Cc1ccnc(-n2nccc2NS(=O)(=O)c2ccc(C#N)cc2)c1 [Example 19, 4-Cyano-N-[2-(4-methyl-pyridin-2-yl)-2H-pyrazol-3-yl]-benzenesulfonamide]"
2,163,"Cc1csc(-n2nccc2NS(=O)(=O)c2ccc(Cl)cc2)n1 [Example 10, 4-Chloro-N-[2-(4-methyl-thiazol-2-yl)-2H-pyrazol-3-yl]-benzenesulfonamide]"
3,34,"CCCc1ccc(S(=O)(=O)Nc2ccnn2-c2ccccn2)cc1 [Example 4, 4-Propyl-N-(2-pyridin-2-yl-2H-pyrazol-3-yl)-benzenesulfonamide]"
4,520,"Cc1csc(-n2nccc2NS(=O)(=O)c2ccc(C(F)(F)F)cc2)n1 [Example 9, N-[2-(4-Methyl-thiazol-2-yl)-2H-pyrazol-3-yl]-4-trifluoromethyl-benzenesulfonamide]"
5,16,"Cc1ccnc(-n2nccc2NS(=O)(=O)c2ccc(Cl)cc2)c1 [Example 17, 4-Chloro-N-[2-(4-methyl-pyridin-2-yl)-2H-pyrazol-3-yl]-benzenesulfonamide]"
6,113,"CCc1ccc(S(=O)(=O)Nc2ccnn2-c2nc(C)cs2)cc1 [Example 11, 4-Ethyl-N-[2-(4-methyl-thiazol-2-yl)-2H-pyrazol-3-yl]-benzenesulfonamide]"
7,20,"CCc1ccc(S(=O)(=O)Nc2ccnn2-c2cc(C)ccn2)cc1 [Example 18, 4-Ethyl-N-[2-(4-methyl-pyridin-2-yl)-2H-pyrazol-3-yl]-benzenesulfonamide]"
8,150,"Cc1csc(-n2nccc2NS(=O)(=O)c2ccc(Cl)cc2F)n1 [Example 26, 4-Chloro-2-fluoro-N-[2-(4-methyl-thiazol-2-yl)-2H-pyrazol-3-yl]-benzenesulfonamide]"
9,1570,"CCc1ccc(S(=O)(=O)Nc2ccnn2-c2nc(C3CC3)ns2)cc1 [Example 25, N-[2-(3-Cyclopropyl-[1,2,4]thiadiazol-5-yl)-2H-pyrazol-3-yl]-4-ethyl-benzenesulfonamide]"
10,16,"CCc1ccc(S(=O)(=O)Nc2ccnn2-c2ccccn2)cc1 [Example 3, 4-Ethyl-N-(2-pyridin-2-yl-2H-pyrazol-3-yl)-benzenesulfonamide]"

# More lines, now with the values behind:
row,Structure (SMILES),EC50 [nM]
1,"O=S(=O)(Nc1ccnn1-c1ncccn1)c1ccc(C(F)(F)F)cc1 [Example 12, N-(2-Pyrimidin-2-yl-2H-pyrazol-3-yl)-4-trifluoromethyl-benzenesulfonamide]",1800
2,"O=S(=O)(Nc1ccnn1-c1ccccn1)c1ccc(Cl)cc1Cl [Example 13, 2,4-Dichloro-N-(2-pyridin-2-yl-2H-pyrazol-3-yl)-benzenesulfonamide]",17
3,"O=S(=O)(Nc1ccnn1-c1ccc(F)cc1)c1ccc(Cl)cc1 [Example 7, 4-Chloro-N-[2-(4-fluoro-phenyl)-2H-pyrazol-3-yl]-benzenesulfonamide]",2460
4,"N#Cc1ccc(S(=O)(=O)Nc2ccnn2-c2ccccn2)cc1 [Example 8, 4-Cyano-N-(2-pyridin-2-yl-2H-pyrazol-3-yl)-benzenesulfonamide]",81
5,"O=S(=O)(Nc1ccnn1-c1ccccn1)c1ccc(C(F)(F)F)cc1F [Example 22, 2-Fluoro-N-(2-pyridin-2-yl-2H-pyrazol-3-yl)-4-trifluoromethyl-benzenesulfonamide]",333
6,"O=S(=O)(Nc1ccnn1-c1ccccn1)c1ccc(C(F)(F)F)cc1 [Example 2, N-(2-Pyridin-2-yl-2H-pyrazol-3-yl)-4-trifluoromethyl-benzenesulfonamide]",8
7,"O=S(=O)(Nc1ccnn1-c1ccccn1)c1ccc(SC(F)(F)F)cc1 [Example 20, N-(2-Pyridin-2-yl-2H-pyrazol-3-yl)-4-trifluoromethylsulfanyl-benzenesulfonamide]",47
8,"O=S(=O)(Nc1ccnn1-c1ccccn1)c1ccc(C(F)(F)F)c(F)c1 [Example 24, 3-Fluoro-N-(2-pyridin-2-yl-2H-pyrazol-3-yl)-4-trifluoromethyl-benzenesulfonamide]",799
9,"CC(F)c1ccc(S(=O)(=O)Nc2ccnn2-c2ccccn2)cc1 (stereo not shown) [Example 15, 4-(1-Fluoro-ethyl)-N-(2-pyridin-2-yl-2H-pyrazol-3-yl)-benzenesulfonamide]",84
10,"O=S(=O)(Nc1ccnn1-c1ccccn1)c1ccc(C(F)(F)F)cc1Cl [Example 5, 2-Chloro-N-(2-pyridin-2-yl-2H-pyrazol-3-yl)-4-trifluoromethyl-benzenesulfonamide]",91
11,"O=S(=O)(Nc1ccnn1-c1ccccn1)c1ccc(S(=O)(=O)C(F)(F)F)cc1 [Example 23, N-(2-Pyridin-2-yl-2H-pyrazol-3-yl)-4-trifluoromethanesulfonyl-benzenesulfonamide]",753
12,"O=S(=O)(Nc1ccnn1-c1ccccn1)c1ccc(OC(F)F)cc1 [Example 6, 4-Difluoromethoxy-N-(2-pyridin-2-yl-2H-pyrazol-3-yl)-benzenesulfonamide]",107
13,"O=S(=O)(Nc1ccnn1-c1ccccn1)c1ccc(Cl)cc1 [Example 1, 4-Chloro-N-(2-pyridin-2-yl-2H-pyrazol-3-yl)-benzenesulfonamide]",19
14,"Cc1ccnc(-n2nccc2NS(=O)(=O)c2ccc(C(F)(F)F)cc2)c1 [Example 16, N-[2-(4-Methyl-pyridin-2-yl)-2H-pyrazol-3-yl]-4-trifluoromethyl-benzenesulfonamide]",17
15,"O=S(=O)(Nc1ccnn1-c1ccnc(C(F)(F)F)n1)c1ccc(C(F)(F)F)cc1 [Example 21, 4-Trifluoromethyl-N-[2-(2-trifluoromethyl-pyrimidin-4-yl)-2H-pyrazol-3-yl]-benzenesulfonamide]",1570

# Reference: patent US9751870B2, “Oxytocin receptor agonists for the treatment of CNS diseases” (Hoffmann-La Roche Inc., priority 2013, dated 2017)
